Experimental data taken from US8741843B2, “Compositions and methods for inducing angiogenesis” (priority 2006, dated 2014).
Entries after “also recorded” stand apart in the source; their conditions may differ.

Legend:
[1] = test system: endothelial cells; experiment: CoCl2-induced apoptosis of endothelial cells (Annexin-FITC/PI FACS); format: cell-based, human; conditions: 24 hours CoCl2 treatment, normoxia about 27%
Method: FIGS. 33a-f are representative FACS analyses depicting a specific inhibition of hypoxia-induced apoptosis of endothelial cells by ADOPep1. Endothelial cells in Petri dishes were incubated for 24 hours with 5% FCS in supplement-free endothelial cell growth medium under normoxia (FIGS. 33a and d), exposed to 24 hours hypoxia (Figures c and f) or incubated under normoxia with 100 micromolar per 100,000 cells CoCl2 (FIGS. 33b and e), in the absence (FIGS. 33a-c) or presence (FIGS. 33d-f) of 10 ng/ml Adopep1 peptide (for 24 hours). Cells were trypsinized and immediately re-suspended in PBS with 5% FCS and 0.1% Na-azide. Samples containing 100,000 cells were tested for apoptosis using the Annexin-FITC (X axis) and propidium iodide (Y axis) kit (Bender Medsystems, Vienna, Austria), according to manufacturer's instructions. Results were analyzed by FACScan (Beckton Dickinson).
FIG. 34 is a histogram depicting the FACS results of the experiments described in FIGS. 33a-f. Data represents average±SD of 2 experiments.

[2] = test system: GRP78 receptor on endothelial cells; experiment: Competitive binding of ADOPeps to GRP78 (anti-GRP78 antibody ELISA on endothelial cells); parameters: species or system human; conditions: summary of 4 experiments
Method: FIG. 19 is a graph depicting inhibition of binding (in percentages) of anti-GRP78 antibody to endothelial cells by increasing concentrations of ADOPep1, 2, and 3 peptides. Endothelial cells were incubated for 2 hours with increasing concentrations of ADOPeps, following which the cells were incubated for another 1 hour with the 2 μg/ml of anti-GRP78 antibody and the amount of bound antibody on EC was detected using an ELISA reader.
Endothelial cells (20,000 per well) were seeded in 96 well plates for 24 hours in the presence of the complete medium. Plates were washed with PBS over night and rehydrated with PBS, 0.1% Na Azide and 5% FCS. ADOPep1, ADOPep2 and ADOPep3 were added to washed plates for 2 hours at room temperature at concentrations of 0.01, 0.1 and 1 microgram per ml. Anti-GRP78 antibody (goat polyclona IgG, Santa Cruz Biotechnology, Calif., USA) was added to the plates for 1 hour at room temperature at a concentration of 2 micrograms/ml per well. After washing, bound anti-GRP78 antibody was detected by incubation with anti-goat IgG Peroxidase conjugated (Jackson Immuneresearch Laboratories, PA, USA). After 5 washes with PBS-0.1% Tween 20, 100 μl/well of TMB+ Substrate-Chromogen (DAKOCytomation, CA, USA) was added for a maximum of 30 minutes. Reaction was stopped with 1N HCl. Color developed was determined by an ELISA reader at 450 nm.

[3] = test system: ERK½; experiment: ERK½ phosphorylation in endothelial cells under hypoxia (Western blot, densitometry); format: cell-based, human; conditions: for ERK½ phosphorylation (in words): endothelial cells under hypoxia, 10 ng/ml
Method: FIGS. 30a-b are Western blot analyses depicting induction of phosphorylation of ERK by ADoPep1 and Motif A. Endothelial cells under starvation conditions and 5 hours hypoxia were incubated for 5 (lanes 2 and 6), 20 (lanes 3 and 7), 30 (lanes 4 and 8) and 60 (lanes 5 and 9) minutes with 10 ng/ml ADoPep1 (Lanes 2-5) or Motif A (lanes 6-9) peptides or remained under hypoxia without a further incubation with a peptide (lane 1). After incubation, lysates were prepared, subject to SDS-PAGE and blotting on a nitrocellulose membrane. Western Blot analysis was performed using anti-Phospho ERK½ antibody. […] FIG. 30a—Experiment 1; FIG. 30b—Experiment 2. The percent adjusted volume as determined by a densitometric analysis software to compare net band densities was as follows: FIG. 30a, lane 1-4.5, lane 2-9.3, lane 3-13.7, lane 4-13.3, lane 5-11.2, lane 6-10.7, lane 7-12.4, lane 8-12.3 and lane 9-12.4; FIG. 30b, lane 1-4.21, lane 2-12.4, lane 3-12.5, lane 4-14.8, lane 5-10.9, lane 6-14.9, lane 7-9.8, lane 8-12.7 and lane 9-7.8.
FIG. 31 is a Western blot analysis depicting the level of phosphorylated ERK (pERK) in endothelial cells activated for 20 minutes with ADOPep1 and motif A and inhibited by pERK-inhibitor peptide. Endothelial cells (from cord 1) under starvation conditions and 5 hours hypoxia were incubated with 10 ng/ml ADOPep1 (lanes 3 and 4) or motif A (lanes 1 and 2) peptides in the presence (lanes 2 and 4) or absence (lanes 1 and 3) of p-ERK-inhibitor peptide (Santa Cruz). For control, the endothelial cells under starvation conditions and 5 hours hypoxia (lane 5) were also incubated with the p-ERK-inhibitor peptide (lane 6). […] The percent adjusted volume as determined by a densitometric analysis software to compare net band densities was as follows: lane 1-19, lane 2-14, lane 3-14, lane 4-8.8, lane 5-11, lane 6-2.1.
FIGS. 32a-b are Western blot analyses depicting the effect of ADOPeps on the level of phosphorylated ERK. Endothelial cells (EC) from cord 1 (FIG. 32a) or cord 2 (FIG. 32b) under hypoxia (5 hours) were incubated for 20 or 30 minutes with 10 ng/ml of AdoPep1, AdoPep2 and AdoPep3 or remained untreated (i.e., under hypoxia without any peptide). Western Blot analyses of samples cell lysates were performed with anti Phospho ERK antibody on nitrocellulose membranes. […] The percent adjusted volume as determined by a densitometric analysis software to compare net band densities was as follows: FIG. 32a, lane 1-11, lane 2-13, lane 3-11, lane 4-5, lane 5-11, lane 6-13, lane 7-17, lane 8-16.7; FIG. 32b, lane 1-17, lane 2-22, lane 3-19, lane 4-7, lane 5-8, lane 6-13, lane 7-14, lane 8-1.

[4] = test system: endothelial cells (HUVEC); experiment: Proliferation of endothelial cells under hypoxia ([H3]Thymidine incorporation); format: cell-based, human; conditions: 24 hours starvation, 10 ng/ml
Method: FIG. 5 is a graph depicting cell proliferation as a function of ADOPeps' concentration. Proliferation of endothelial cells (EC) under hypoxia conditions was measured by [H^3]Thymidine incorporation. Endothelial cells (12,000/well) in minimal growth medium were incubated for 24 hours in the presence of 1, 10 and 100 ng/ml of ADOPep1 (SEQ ID NO:2; red diamonds), 2 (SEQ ID NO:3; blue squares) and 3 (SEQ ID NO:4; green triangles) peptides.
HUVEC from passage 3 were used for proliferation experiments. Endothelial cells (15,000 cells/well) were seeded on 24-wells in the presence of endothelial cell growth medium (Promocell, Heidelberg, Germany) with supplements and incubated for 24 hours. After then, cells were exposed to 24 hours starvation in a medium free of supplements. ADOPeps were added at concentrations of 1, 10 and 100 ng/ml for 24 hours under hypoxic conditions. 2 μCi/well of Thymidine (SIGMA, Rehovot Israel) were added or over night incubation followed by 3 washes with PBS before harvesting at 37° C. with 300 μl/well of 0.5 M NaOH. Cell lysates were transferred to scintillation vials with 2 ml scintillation liquid Ultima Gold (Packard Bioscience, Meriden, USA) and counted in a β counter. Results were obtained as counts per minute (cpm).

[5] = test system: endothelial cells; experiment: Tube formation of endothelial cells on Cultrex Basement Membrane Extract; format: cell-based, human; conditions: 10 ng/ml, 18 hours, starvation and normoxic conditions
Method: FIG. 27 is a graph depicting induction of tube formation using AdoPep1 and Motif A (SEQ ID NO:7) but not the scrambled sROY peptide. Endothelial cells were incubated in media without supplements for 24 hours, and 50,000 cells were then transferred in 500 μl medium to 24-well plates precoated with 250 μl Cultrex Basement Membrane Extract (with reduced growth factors) (R&D Systems, Minneapolis, Minn., USA). AdoPep1, Motif A and scrambled sROY peptides were added at an optimal concentration of 10 ng/ml (based on preliminary findings), and the slides were examined by light microscopy after 18 hours incubation. The results represent average±SD of three experiments using 3 different cords. The length of the network of connected cells (tube formation) was measured in micrometers in 5 different areas of each well using Image-Pro Plus Image software (Media Cybernetics, Silver Spring, Md., USA).

[6] = FIG. 32a cord 1, 10 ng/ml, 20 minutes, untreated 11, 13
[7] = FIG. 32a cord 1, 10 ng/ml, 30 minutes, untreated 11, 13
[8] = FIG. 32b cord 2, 10 ng/ml, 20 minutes, untreated 17
[9] = FIG. 32b cord 2, 10 ng/ml, 30 minutes, untreated 8

| Molecule | level of apoptosis [1] | inhibition of binding of anti-GRP78 antibody to EC (in words) [2] | percent adjusted volume of phospho ERK band [3, 6] | percent adjusted volume of phospho ERK band [3, 7] | percent adjusted volume of phospho ERK band [3, 8] | percent adjusted volume of phospho ERK band [3, 9] | ERK½ phosphorylation (in words) [3] | proliferation of endothelial cells [4] | tube formation (length of the network of connected cells) ([5]; listed as scrambled sROY) | tube formation (length of the network of connected cells) ([5]; listed as scrambled sROY peptide) |
| --- | --- | --- | --- | --- | --- | --- | --- | --- | --- | --- |
| [Cl][Co][Cl] [CoCl2, Cobalt-Chloride, reference compound] | ~67% |  |  |  |  |  |  |  |  |  |
| AVTLENFLHWRR [ADOPep3, ADAM15 derived peptide] |  | some degree of inhibition | 11% | 5% | 7% | 1% | had not effect on ERK½ phosphorylation |  |  |  |
| ENFLHWRRAHLL [ADOPep2, ADAM15 derived peptide] |  | some degree of inhibition | 11% | 13% | 19% | 14% | induced ERK½ phosphorylation; also recorded: increase in ERK½ phosphorylation | capable of inducing proliferation of EC |  |  |
| RYHLIPRGWDHS [sRoY, scrambled control peptide, reference compound] |  | not effective; also recorded: no specific inhibition effect |  |  |  |  |  |  | did not induced tube formation | no effect on tube formation |
